Here are results for two substances from patent US7655624B2, “Peptide and peptide mimetic conjugates with integrin-inhibitor properties” (Biomet Deutschland GmbH, priority 2000, dated 2010).

The test deals with mouse MC3T3 H1 osteoblast cultures. As to the kind of experiment: Cell adhesion test on RGD-peptide-coated material surfaces. Type of test: cell-based. Particulars: adhered cells/inoculated cells x 100; 50 000 cells/cm^2 inoculated on peptide-coated material surface; serum-free medium, 37° C./95% atmospheric humidity, one hour. As for the experimental part:
The shaped articles are transferred into 48 wells (Costar, “non-tissue culture treated” Art. No. 3574). To attach the bioactive, cell adhesion-mediating molecules B (where B can be a cyclopeptide, peptide mimetic or linear peptide according to claim 2) to the prepared shaped articles, molecule B-containing stock solutions (“B solutions”) are prepared in a final concentration of 1 mM in one of the aqueous buffers Tris-HCl (10 mM, pH 8.7), Tris-HClO4 (10 mM, pH 8.7) or PBS, pH 7.4. Concentration series with the “B solutions” final concentrations of in each case 1 nm, 10 nm, 100 nm, 1 μm, 10 μm and 100 μm are then prepared by dilution with PBS, pH 7.4. The shaped articles are each covered with 250 μl of the respective B solution and then incubated at room temperature for 18-24 hours. To remove unbound B molecules, the samples are washed three times with PBS, pH 7.4, and stored in PBS, pH 7.4, at 4° C. overnight. […]
The adhesion of mouse MC3T3 H1 osteoblast cultures in vitro to RGD-peptide-coated material surfaces was investigated. In this test, 50 000 cells/cm^2 were inoculated and, after incubation in serum-free medium at 37° C./95% atmospheric humidity for one hour, the proportion of adhered cells was determined. […]

For the substance “Cyclo-(Arg-Gly-Asp-DPhe-Lys (N^εH[CO—(CH2)5—NH]2-Lys-[Lys-(CO—CH2—CH2—PO3H2)2]2)) [Example 4]”, the cell adhesion rate turned out to be 75%. To “Cyclo-(Arg-Gly-Asp-DPhe-Lys (N^εH—[CO—(CH2)5—NH]3-Lys-[Lys-(CO—CH2—CH2—PO3H2)2]2) [Example 5]” belongs 62%.
